# Results published in patent US12612627B2, “Compositions and methods for increasing sodium current in cardiac cells” (REGENTS OF THE UNIVERSITY OF MINNESOTA, priority 2020, dated 2026).
# How the values were obtained:
# [1] = tested on: miR-448; assay: miR-448 level by qPCR in RL14 human cardiomyocytes; assay type: cell-based; settings: for increase of miR-448 by deferoxamine: then deferoxamine six hours; for miR-448 expression: RL14 cells stimulated with hypoxia-mimetic chemical for 24 hours, normalized with RNU6
# Method: Human fetal cardiomyocyte cell line RL14 (ATCC RL-14, ATCC, Manassas, VA) cells were grown in DMEM/F-12 nutrient mixture (GE Healthcare Life Sciences, Logan, UT) supplemented with 12.5% (v/v) fetal bovine serum (Gibco, Grand Island, NY) and penicillin-streptomycin (10,000 U/mL; Gibco, Grand Island, NY). HEK293T cells were maintained in DMEM high glucose supplemented with 10% fetal bovine serum and penicillin-streptomycin. hiPSC-cardiomyocytes (iCELL Cardiomyocytes) were obtained from Cellular Dynamics International (Madison, WI). iCELL cardiomyocytes were seeded and maintained using iCELL Cardiomyocyte Plating Medium and Maintenance Medium (FUJIFILM Cellular Dynamics, Inc., Madison, WI). For hypoxic conditions, the cells were cultured in an hypoxic incubator chamber (STEMCELL Technologies, Vancouver, BC) using pre-incubated culture media or were treated with hypoxic-mimetic chemicals, deferoxamine (DFX) and cobalt chloride (CoCl2) (Sigma-Aldrich, St. Louis, MO) as previously described (Chachami et al., 2004, Am J Respir Cell Mol Biol 31:544-551; Woo et al, 2006, Biochem Biophys Res Commun 343:8-14).
# Syn-hsa-miR-448 miScript miRNA mimic, anti-hsa-miR-448 miScript miRNA inhibitor, and its negative controls were purchased from Qiagen (Valencia, CA). REST siRNA and its negative control were obtained from Integrated DNA Technologies (Coralville, IA). The cells were transfected using HiPerFect Transfection Reagent (Qiagen, Valencia, CA) following the recommendations of the manufacturer. Plasmid DNA was transfected into cultured cells using SuperFect transfection reagent (Qiagen, Valencia, CA) following the manufacturer's protocol.
# Total RNA was prepared using RNeasy Plus Mini Kit or miRNeasy Mini Kit (Qiagen, Valencia, CA) according to the manufacturer's instructions. Reverse transcription was performed with a First Strand cDNA Synthesis kit (Promega, Madison, WI). cDNA for miRNA detection was generated by the miScript II RT Kit (Qiagen, Valencia, CA). A reverse transcription quantitative real-time PCR was performed with SYBR Green PCR Master Mix (Thermo Fisher Scientific, Waltham, MA) using the 7500Fast Real-Time PCR system (Thermo Fisher Scientific, Waltham, MA) and miScript SYBR Green PCR Kit with miScript primer assays to detect the expression of miRNA. The primer sequences were as follows:
# Hs_miR-448_1 miScript Primer Assay (5′-[…]-3′; (SEQ ID NO:1; Qiagen, Valencia, CA) was used for detecting miR-448, and the Hs_RNU6-2_11 miScript Primer Assay (Qiagen, Valencia, CA) was used as an endogenous control. The relative fold change was calculated by the 2^−ΔΔCt method, and the measurements were normalized with respect to the endogenous control (RNU6, GAPDH).
# [2] = tested on: Nav1.5; assay: Nav1.5 protein level by Western blotting in RL14 human cardiomyocytes; assay type: cell-based; settings: cardiomyocytes treated for 24 hours
# Method: Human fetal cardiomyocyte cell line RL14 (ATCC RL-14, ATCC, Manassas, VA) cells were grown in DMEM/F-12 nutrient mixture (GE Healthcare Life Sciences, Logan, UT) supplemented with 12.5% (v/v) fetal bovine serum (Gibco, Grand Island, NY) and penicillin-streptomycin (10,000 U/mL; Gibco, Grand Island, NY). HEK293T cells were maintained in DMEM high glucose supplemented with 10% fetal bovine serum and penicillin-streptomycin. hiPSC-cardiomyocytes (iCELL Cardiomyocytes) were obtained from Cellular Dynamics International (Madison, WI). iCELL cardiomyocytes were seeded and maintained using iCELL Cardiomyocyte Plating Medium and Maintenance Medium (FUJIFILM Cellular Dynamics, Inc., Madison, WI). […]
# Cells were washed twice with ice-cold PBS and disrupted in Cell Lysis Buffer (Cell Signaling Technology, Danvers, MA) with Protease and Phosphatase Inhibitor Cocktail (Thermo Fisher Scientific, Waltham, MA) on ice for 30 minutes. […] The total protein concentration was quantified using the BCA Protein Assay Kit (Pierce, Thermo Fisher Scientific, Waltham, MA). […]
# After TBST washing, the membrane was incubated with horseradish peroxidase (HRP)-conjugated secondary antibody (1:5000) for 90 min at room temperature. […] The images were analyzed using ImageJ software to measure band density. […]
compound,measurement,setting,value
Cc1ccc(S(=O)(=O)/C=C/C#N)cc1 [Bay11-7028],increase of miR-448 by deferoxamine,[1]; 0.5 μM or 2 μM for 30 minutes,inhibited
O=S(=O)(NCCSSCCNS(=O)(=O)c1cc(Cl)ccc1Cl)c1cc(Cl)ccc1Cl [KC7F2],increase of miR-448 by deferoxamine,[1]; 5 μM or 20 μM for 30 minutes,inhibited
C=CCONC(=O)c1ccc2nc(-c3ccccc3O)[nH]c2c1 [X5050],Nav1.5 protein level,[2],decreased
[Cl][Co][Cl] [cobalt chloride],miR-448 expression,[1],increased
COC(=O)CNC(=O)C(=O)OC [dimethyloxallyl glycine],miR-448 expression,[1],increased
